One compound from patent US9192597B2, “Composition for inhibiting vascular aging comprising syringaresinol” (AMOREPACIFIC CORPORATION, priority 2011, dated 2015) can be followed below.

One test deals with eNOS. Nature of the test: eNOS protein expression in aged vascular endothelial cells (Western blot). The test is classed as cell-based, human. The following applies: 50 μM, vs DMSO and young cells, FIG. 6. As to the method: (§1) In order to evaluate whether syringaresinol can restore the declined function of aged vascular cells to that of young vascular cells, the aging of vascular endothelial cells was induced by treating with 50 μM syringaresinol or DMSO as control in substantially the same manner as in Test Example 1. […] As a result, cardiovascular diseases such as arteriosclerosis can occur easily. The cells treated with syringaresinol or DMSO were washed with PBS and lysed with lysis buffer (Sigma), and the supernatant was recovered. Then, protein present in the supernatant was quantitated using Protein Dye Reagent™ (Bio-Rad). 100 μg of the obtained protein was fractionated by size by electrophoresing on 8% SDS-PAGE and transferred onto PVDF membrane (Bio-Rad) for 12 hours with 50 V. Then, the membrane was blocked for 1 hour with 5% non-fat milk and treated with anti-eNOS, anti-PAI-1 and anti-actin antibodies, as primary antibodies, and horse radish peroxidase (HRP)-conjugated anti-rabbit IgG (Amersham) as secondary antibody, and reacted using the enhanced chemiluminescence (ECL) kit (Amersham). The reacted PVDF membrane exposed to X-ray Fuji film and developed to investigate the protein expression level.
For orientation: Immunoblotting shows a protein as a band on a membrane.

The subject of the next test is telomerase. Nature of the test: Telomerase activity in aged vascular endothelial cells (TeloTAGGG telomerase PCR ELISA Plus kit). The test is classed as cell-based, human. The following applies: 50 μM, compared to cells treated only with DMSO, FIG. 5. The method, then: The aging of vascular endothelial cells was induced by treating with 50 μM syringaresinol or DMSO as control in substantially the same manner as in Test Example 1. The aged cells were washed with PBS and lysed using lysis buffer (Sigma), and the obtained protein was quantitated. Telomerase activity was evaluated using the TeloTAGGG telomerase PCR ELISA Plus kit (Roche Applied Science, Indianapolis, Ind., USA).
Background: An ELISA detects its analyte on a solid surface through an enzyme-linked reagent.

In another test the test system is SIRT1 gene. As to the kind of experiment: SIRT1 gene expression promoting effect in aged human vascular endothelial cells (RT-PCR). The note with it: aged human vascular endothelial cells (14 PDL to 40 PDL), 20, 50 or 100 μM every other day, vs DMSO; FIG. 2. The test is classed as cell-based. The method, then: The SIRT1 gene expression promoting effect of syringaresinol in aged human vascular endothelial cells was evaluated as follows.
Human vascular endothelial cells purchased from Lonza (Walkersville, Md., USA) were cultured using the endothelial cell growth medium EGM-2 SingleQuots (Lonza) in a 5% CO2 incubator until 70% confluency. […] The population doubling level (PDL) was calculated according to the following equation for each generation until the cell growth was stopped. The PDL value is higher in aged cells. PDL=(Log10 Y−Log10 X)/Log10 2
Y: number of cells at the end of the generation
X: number of cells at the beginning of the generation
14 PDL cells were treated with syringaresinol dissolved in DMSO at a concentration of 20, 50 or 100 μM every other day while inducing aging to 40 PDL cells. The cells of a negative control group were treated with DMSO of 1/1000 of the volume of the medium. The cells treated with each sample were washed 2 times with cold PBS and RNA was extracted using TRIzol reagent (Invitrogen). cDNA was synthesized from the extracted RNA (1 μg/μL) using a reverse transcription system (Promega). Subsequently, the expression pattern of the SIRT1 and GAPDH genes was measured using the synthesized cDNA and predesigned primers and probes (Applied Biosystems; SIRT1, Hs01009006_m1; GAPDH, Hs99999905_m1). […]

The subject of test [1] is aged vascular endothelial cells (SA-β-gal). As to the kind of experiment: Aging marker SA-β-gal staining in aged vascular endothelial cells (Cellular Senescence Assay kit). The test is classed as cell-based, human. The note with it: 50 μM, compared to cells treated only with DMSO. The method, then:
The aging of vascular endothelial cells was induced by treating with 50 μM syringaresinol in substantially the same manner as in Test Example 1. The aged cells were washed with PBS and stained at 37° C. for 16 hours using a fixative and a stain provided together with the Cellular Senescence Assay kit (Cell Biolabs, Inc., San Diego, Calif., USA). Next day, the cells were washed with PBS, overlaid with 20% glycerol solution and observed under a microscope. The number of the cells stained green was counted and the activity of the aging marker SA-β-gal was determined.

Another test deals with PAI-1. Nature of the test: PAI-1 protein expression in aged vascular endothelial cells (Western blot). The test is classed as cell-based, human. The note with it: 50 μM, vs DMSO and young cells, FIG. 6. The method, then:
as §1

Take `COc1cc(C2OCC3C(c4cc(OC)c(O)c(OC)c4)OCC23)cc(OC)c1O` (stereo not drawn) [syringaresinol]: in the test on eNOS, the eNOS expression entry is given as “increased eNOS expression comparable to that of young cells”. The “increase of telomerase activity” value in the test with telomerase is reported as “about 30%”. In addition, the SIRT1 gene expression result with SIRT1 gene was “increases the decreased SIRT1 expression in aged vascular endothelial cells in a concentration-dependent manner”. In addition, the “number of green-stained (SA-β-gal) cells” value in test [1] (FIG. 3 and 4) is “remarkably smaller number of green-stained cells”. For the same compound, the “decrease of SA-β-gal activity” value in test [1] (FIG. 4) was around 50%. Moreover, the PAI-1 expression result in the test on PAI-1 is “decreased PAI-1 expression comparable to that of young cells”.
